# Assay results reported in patent publication US8278100B2, “Lasonolide compounds as reagents for inducing premature chromosome condensation and methods for treating disorders” (The United States of America, as Represented by the …, priority 2008, dated 2012).
# “Also recorded” adds a separate entry of the source.
# Columns and labels:
# [1] = test system: human lymphocytes; experiment: PCC induction and PI staining; assay type: cell-based; details: 200 nM Lasonolide A, without additional reagents
# [2] = test system: actin network in MDA-MB-231 cells; experiment: Actin staining with phalloidin; assay type: cell-based, human
# Description: Cells were fixed with 4% paraformaldehyde and permeabilized with PBS containing 0.1% Triton X-100. After blocking with 1% bovine serum albumin for 30 min. Cells were incubated with Alexa Fluor 488-conjugated phalloidin (Molecular Probes) to stain actin stress fibers.
# [3] = test system: MCF-7 cells; experiment: Cell cycle analysis; assay type: cell-based; details: 24 h treatment
# Description: (§1) After treatment, cells were collected, washed twice with ice-cold PBS, and fixed overnight with 70% precooled (−20° C.) ethanol. Fixed cells were resuspended in PBS containing 0.02 mg/mL RNase A (Roche, USA) and incubated at 37° C. for 15 min. Next, the cells were stained with 0.01 mg/mL propidium iodide (Sigma) in the dark at room temperature for 10 min. The DNA content was analyzed by flow cytometry using a FACSCalibur (Becton Dickinson, Sunnyvale, Calif.) with Cellquest and Modfit LT3.0 software (Becton Dickinson) (FIGS. 1D & 2A).
# [4] = test system: HT 29 cells; experiment: Cell cycle analysis; assay type: cell-based; details: 24 h treatment
# Description: as §1
# [5] = test system: HCT 116 cells; experiment: Cell cycle analysis; assay type: cell-based; details: 24 h treatment
# Description: as §1
# [6] = test system: tumor cells; experiment: Premature chromosome condensation (PCC) induction, cells not specified; assay type: cell-based
# Description: Burkitt's Lymphoma CA46 cells (500,000) (FIG. 1B) or breast cancer MDA-MB-231 cells (500,000) (FIG. 1A) were treated by 100 nM Lasonolide A (stock solution 100 μM in DMSO) for 1 h. Lymphocytes were treated with 200 nM Lasonolide A for 1 h. Cells were harvested with centrifuging on 2,000 rpm for 5 min at 4° C. Pellets were washed once by PBS and re-suspended in 1 mL PBS. 200 μL cells mixture were added to the chamber for cytospining. Cells were cytospun on 800 rpm for 10 min; slides were fixed in fresh-made 4% paraformaldehyde fixation for 20 min at room temperature, then moved to 70% ethanol for 20 min. Slides were stained with Propidium Iodide (“PI”) (20 μg/mL) and RNase A (100 μg/mL) for 15 min. Slides were washed with PBS for three times and mounted with Vectashield anti-fade mounting media (Vector Laboratories, Inc., Burlingame, Calif.). Images were taken using a Nikon Eclipse TE-300 confocal microscope.
# [7] = test system: phosphorylated-H3 Ser28 in CA46 cells; experiment: Immunofluorescence assay; assay type: cell-based, human
# Description: After drug treatments, CA46 cells were cytospun on the slides. Slides were fixed for 20 min with 4% paraformaldehyde in PBS (pH 7.4), and washed twice with PBS. After incubation for 20 min with 70% ethanol and washing with PBS, the cells were incubated in blocking buffer [8% bovine serum albumin (BSA) in PBS] for 1 h before incubation for 2 h with primary antibodies against phosphorylated-H3 Ser28 (Cell signaling) (FIG. 5). Slides were incubated for additional 1 h with the Alex488-conjugated secondary antibody (Alexa Fluoro 488 donkey anti-goat IgG, Molecular Probes, Invitrogen, CA). After three washes in PBS, cells were stained with 0.5 μg/mL propidium iodide (PI) and 100 μg/mL RNase A (Sigma, Mo.) for 15 min in the dark. Finally, slides were washed with PBS for three times and mounted with Vectashield anti-fade mounting media (Vector Laboratories, Inc., Burlingame, Calif.). Images were taken using a Nikon Eclipse TE-300 confocal microscope.
# [8] = test system: cyclinB1; experiment: Western blot; assay type: cell-based
# Description: (§2) Protein levels were measured by Western blotting with corresponding specific primary antibodies, including those against Cdc2 p34(Santa Cruz), cyclinB1 (Santa Cruz) (FIG. 4A), Anti-Acetylated-H3K9 (Upstate), phosphorylated-H3 Ser28 (Cell signaling). GAPDH was as the loading control.
# [9] = test system: Acetylated-H3K9; experiment: Western blot; assay type: cell-based
# Description: as §2
# [10] = test system: phosphorylated-H3 Ser28; experiment: Western blot; assay type: cell-based
# Description: as §2
# [11] = test system: chromosome condensation in each phase of the cell cycle; experiment: Chromosome spread assay; assay type: cell-based
# Description: After the induction of PCC by Lasonolide A, cells were incubated in hypotonic solution (10 mM Tris-HCl [ph 7.4], 40 mM glycerol, 20 mM NaCl, 1 mM CaCl2, 0.5 mM MgCl2) at 37° C. for 15 min. Then followed with cytospining at 1,800 rpm for 10 min and normal PI staining as above (FIG. 1E).
# [12] = biological target: T1, PP2A (Homo sapiens, UniProt P67775); experiment: In vitro phosphatase activity assay; assay type: biochemical; details: compared with Okadaic Acid
# T1 construct: purchased Upstate
# Description: (§3) The inhibitory effect of active agents on PP2A or PP1 enzyme activity was determined by measuring the generation of free PO4 from the phosphopeptide RRA(pT)VA, using the molybdate-malachite green-phosphate complex assay. The phosphatase assay was performed in a PP2A-specific reaction buffer [50 mM imidazole (pH 7.2), 0.2 mM EGTA, 0.02% 2-mercaptoethanol, 0.1 mg/mL of bovine serum albumin] using 10 μ/M phosphopeptide substrate and 0.03 Units PP2A (Upstate), or in PP1-specific reaction buffer [50 mM HEPES, 2 mM Dithiothreitol, 0.025% Tween-20, 0.1 mM EGT 100 mM NaCl] together with 100 μM phosphopeptide substrate and 0.03 Units PP1 (Biolabs). Different concentrations of active agents were added in the reaction system. After a 20-min incubation at 30° C., molybdate dye was added, and the amount of free phosphate generated was determined from the optical density at 630 nm (VERSAmax, Molecular Device), using a standard curve for free phosphate. Phosphatase activity was defined as picomoles of free PO4 generated per minute per microgram of protein, and phosphatase activity without drug was defined as 100% (FIGS. 3C & 3D).
# [13] = biological target: T2, PP1 (Oryctolagus cuniculus, UniProt P62139); experiment: In vitro phosphatase activity assay; assay type: biochemical; details: compared with Okadaic Acid
# T2 construct: purchased Biolabs
# Description: as §3
# T2 sequence (P62139 whole entry): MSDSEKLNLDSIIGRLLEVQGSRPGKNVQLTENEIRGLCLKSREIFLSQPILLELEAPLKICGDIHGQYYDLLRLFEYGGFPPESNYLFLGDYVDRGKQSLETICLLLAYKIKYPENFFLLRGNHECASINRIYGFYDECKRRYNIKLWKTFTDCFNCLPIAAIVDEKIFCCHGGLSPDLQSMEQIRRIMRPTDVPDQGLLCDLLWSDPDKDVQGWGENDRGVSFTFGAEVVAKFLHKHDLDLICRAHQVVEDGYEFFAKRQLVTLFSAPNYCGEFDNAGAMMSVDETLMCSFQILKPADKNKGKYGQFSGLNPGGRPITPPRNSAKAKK
# T1 sequence (P67775 whole entry): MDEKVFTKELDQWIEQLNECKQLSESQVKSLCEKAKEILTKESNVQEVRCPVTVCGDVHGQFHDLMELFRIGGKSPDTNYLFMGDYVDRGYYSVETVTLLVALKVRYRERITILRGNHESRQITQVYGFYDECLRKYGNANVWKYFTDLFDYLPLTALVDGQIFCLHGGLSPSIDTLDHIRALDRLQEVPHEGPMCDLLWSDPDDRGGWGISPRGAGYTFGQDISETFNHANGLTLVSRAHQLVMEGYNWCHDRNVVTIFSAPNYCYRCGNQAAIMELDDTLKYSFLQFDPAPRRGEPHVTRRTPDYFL
# T1 sequence (P30153 2-589 partner limits assumed): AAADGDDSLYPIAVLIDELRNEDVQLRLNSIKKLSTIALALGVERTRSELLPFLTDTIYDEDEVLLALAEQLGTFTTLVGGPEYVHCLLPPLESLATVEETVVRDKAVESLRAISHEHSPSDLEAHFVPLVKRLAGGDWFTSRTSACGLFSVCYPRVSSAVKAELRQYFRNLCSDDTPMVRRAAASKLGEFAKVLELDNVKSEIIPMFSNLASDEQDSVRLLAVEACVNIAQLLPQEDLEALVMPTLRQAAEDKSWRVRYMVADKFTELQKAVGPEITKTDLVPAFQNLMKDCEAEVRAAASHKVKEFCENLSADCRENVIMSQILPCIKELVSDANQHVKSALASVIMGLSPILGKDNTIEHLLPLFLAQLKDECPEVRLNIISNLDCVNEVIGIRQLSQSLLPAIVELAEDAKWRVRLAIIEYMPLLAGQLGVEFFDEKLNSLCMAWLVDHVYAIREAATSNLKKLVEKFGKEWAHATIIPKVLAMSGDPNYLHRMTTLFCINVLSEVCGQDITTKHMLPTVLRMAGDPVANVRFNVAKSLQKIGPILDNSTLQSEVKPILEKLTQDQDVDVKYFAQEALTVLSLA
smiles,measurement,setting,value
C=C(CCC(C)C)COC(=O)[C@H](O)C/C=C\C[C@@H]1O[C@@H]2/C=C/C/C=C/C(C)=C\[C@H]3O[C@@H](C/C=C/C=C/C(=O)O[C@H](C2)[C@@]1(C)CO)C[C@H](O)[C@H]3C [Lasonolide A],lymphocytes going to PCC,[1],35.5%
same,actin network / cytoskeleton,[2],reorganized the cytoskeleton system; also recorded: reorganized the actin network
same,cell cycle arrest,[3],G2/M phase arrest
same,cell cycle arrest,[4],G2/M phase arrest
same,cell cycle arrest,[5],G2/M phase arrest
same,reversibility of PCC induction,[6],reversible
same,time to PCC induction,[6]; nanomolar concentrations,≤ 1 h
same,PCC induction compared with Okadaic Acid,[6]; tumor cells and normal human lymphocytes,more potent ability of PCC induction
same,"phosphorylation of H3 (Ser28), immunofluorescence",[7],showed the phosphorylation of H3 (Ser28)
same,protein level of cyclinB1,[8],decreased the protein level of cyclinB1
same,acetylation of histone H3,[9],decreased the acetylation of histone H3 Lysine 9; also recorded: decreased the acetylation of H3 (Arg9)
same,H3 acetylation induced by the HDAC inhibitor SAHA,[9]; with SAHA,attenuated the enhancement of H3 acetylation
same,phosphorylation of H3 (Ser28),[10],increased the phosphorylation of H3 (Ser28)
same,cell cycle phases in which PCC is induced,[11],induce PCC in each phases of cell cycle; also recorded: induce PCC in each phase of the cell cycle
same,inhibitory effect on PP2A,[12],weaker inhibitory effect
same,inhibitory effect on PP1,[13],weaker inhibitory effect
